Assay results reported in article PMC9959456, “Multiple-P450 Gene Co-Up-Regulation in the Development of Permethrin Resistance in the House Fly, Musca domestica” (International Journal of Molecular Sciences, 2023).

Tests used:
CYP4S24 = biological target: T1, CYP4S24 (Musca domestica, UniProt T1PEC4); test: HPLC substrate depletion, P450/CPR Sf9 microsomes; assay type: biochemical; details: 0.2 µM P450, NADPH-regenerating system, 0.25 mM MgCl2, pH 7.4, 30 °C, 120 min
T1 construct: full length, co-expressed with house fly CPR (MOI 10:1) by baculovirus in Sf9 cells; microsomes; with NADPH--cytochrome P450 reductase
T1 sequence (T1PEC4 1-496): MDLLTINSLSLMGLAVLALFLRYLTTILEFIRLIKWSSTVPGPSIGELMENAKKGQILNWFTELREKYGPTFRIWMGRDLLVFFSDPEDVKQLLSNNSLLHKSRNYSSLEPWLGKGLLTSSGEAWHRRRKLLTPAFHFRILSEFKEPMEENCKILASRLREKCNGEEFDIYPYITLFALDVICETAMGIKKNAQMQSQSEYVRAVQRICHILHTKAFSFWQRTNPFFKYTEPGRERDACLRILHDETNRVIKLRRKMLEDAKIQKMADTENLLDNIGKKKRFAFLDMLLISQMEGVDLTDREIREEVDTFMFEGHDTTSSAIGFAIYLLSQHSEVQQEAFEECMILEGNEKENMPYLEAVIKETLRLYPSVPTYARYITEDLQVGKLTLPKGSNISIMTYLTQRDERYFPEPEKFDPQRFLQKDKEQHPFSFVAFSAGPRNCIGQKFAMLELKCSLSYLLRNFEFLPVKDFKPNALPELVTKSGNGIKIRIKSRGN
T1 sequence (Q07994 1-671 partner): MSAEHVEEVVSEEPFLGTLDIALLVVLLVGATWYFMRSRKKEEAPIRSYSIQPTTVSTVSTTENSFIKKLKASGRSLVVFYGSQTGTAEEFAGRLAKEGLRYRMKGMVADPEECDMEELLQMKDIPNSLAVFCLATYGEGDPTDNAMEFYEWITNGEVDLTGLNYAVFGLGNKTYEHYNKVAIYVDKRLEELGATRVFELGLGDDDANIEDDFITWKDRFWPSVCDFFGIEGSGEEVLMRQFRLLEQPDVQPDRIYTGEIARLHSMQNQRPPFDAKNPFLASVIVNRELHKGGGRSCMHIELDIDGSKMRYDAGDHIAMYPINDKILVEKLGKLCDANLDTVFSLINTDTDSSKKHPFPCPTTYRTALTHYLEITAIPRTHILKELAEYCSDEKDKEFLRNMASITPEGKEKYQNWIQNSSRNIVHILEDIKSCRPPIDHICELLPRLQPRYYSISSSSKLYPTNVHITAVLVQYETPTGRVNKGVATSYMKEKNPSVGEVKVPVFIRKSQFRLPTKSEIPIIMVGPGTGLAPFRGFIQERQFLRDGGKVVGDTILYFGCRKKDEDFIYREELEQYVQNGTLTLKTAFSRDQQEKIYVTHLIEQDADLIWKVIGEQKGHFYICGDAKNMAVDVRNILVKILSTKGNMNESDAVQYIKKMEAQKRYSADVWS

CYP6A36 = biological target: T2, CYP6A36 (Musca domestica, UniProt Q06S82); test: HPLC substrate depletion, P450/CPR Sf9 microsomes; assay type: biochemical; details: 20 µM cis/trans permethrin mixture, 0.2 µM P450, NADPH-regenerating system, 0.25 mM MgCl2, pH 7.4, 30 °C, 120 min
T2 construct: full length, co-expressed with house fly CPR (MOI 10:1) by baculovirus in Sf9 cells; microsomes; with NADPH--cytochrome P450 reductase
T2 sequence (Q06S82 1-507): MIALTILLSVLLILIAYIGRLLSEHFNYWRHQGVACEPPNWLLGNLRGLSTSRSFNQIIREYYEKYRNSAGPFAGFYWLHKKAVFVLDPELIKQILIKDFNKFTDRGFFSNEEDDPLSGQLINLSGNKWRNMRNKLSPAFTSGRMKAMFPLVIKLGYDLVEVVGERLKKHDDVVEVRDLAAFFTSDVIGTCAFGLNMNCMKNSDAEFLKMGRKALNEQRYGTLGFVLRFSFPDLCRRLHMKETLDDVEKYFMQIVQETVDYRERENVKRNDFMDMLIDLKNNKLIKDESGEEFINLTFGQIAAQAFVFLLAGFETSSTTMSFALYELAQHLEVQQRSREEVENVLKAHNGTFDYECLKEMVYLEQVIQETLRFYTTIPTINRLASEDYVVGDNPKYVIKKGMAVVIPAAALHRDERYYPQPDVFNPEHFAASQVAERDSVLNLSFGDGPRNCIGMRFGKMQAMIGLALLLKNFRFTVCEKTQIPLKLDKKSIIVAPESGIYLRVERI
T2 sequence (Q07994 1-671 partner): T1 sequence (Q07994 1-671 partner)

For `OCc1cccc(Oc2ccccc2)c1` [PBalc], the “HPLC substrate depletion, P450/CPR Sf9 microsomes” value (CYP4S24; 20 µM PBalc) was “CYP4S24 exhibiting the highest ability to metabolize both PBalc and PBald”.
In the case of `O=Cc1cccc(Oc2ccccc2)c1` [PBald], the “HPLC substrate depletion, P450/CPR Sf9 microsomes” value (CYP4S24; 20 µM PBald) is reported as “CYP4S24 exhibiting the highest ability to metabolize both PBalc and PBald”.
In the case of `CC1(C)C(C=C(Cl)Cl)C1C(=O)OCc1cccc(Oc2ccccc2)c1` (stereo not drawn) [trans-permethrin], the “HPLC substrate depletion, P450/CPR Sf9 microsomes” value (CYP6A36) is reported as “CYP6A36 showed the highest activity toward both trans- and cis-permethrin”.
